{
  "source": "patent US12247018B2",
  "about": "“Aryl-n-aryl derivatives for treating a RNA virus infection” (ABIVAX, priority 2018, dated 2025)",
  "data": [
    {"system": "RSV A2", "test": "RSV inhibition (cytopathic effect) in HEp-2 cells using Viral ToxGlo assay", "assay_type": "cell-based", "settings": "human respiratory syncytial virus; RSV A2, HEp-2 cells, MOI 0.5, 72 h p.i.", "protocol": "Protocol for Screening Antiviral Compounds for RSV Inhibition and Cytotoxicity Using Viral ToxGlo Assay\nHEp-2 cells were maintained in Eagle's minimum essential medium (EMEM) with Earle's BSS adjusted to contain 2 mM L-glutamine, 10% fetal bovine serum, 100 U/ml penicillin and 100 μg/ml streptomycin. For the purposes of the screening assay they were grown to 90% confluency, trypsinized and recovered. The trypsin was neutralised with cell culture media and cells were centrifuged at 150×g for 5 minutes before discarding the supernatant and resuspending cell pellet in assay media (EMEM with Earle's BSS adjusted to contain 2 mM L-glutamine, 2% fetal bovine serum and 100 U/ml penicillin and 100 μg/ml streptomycin). The cells were seeded into white clear-bottomed cell culture plates at a density of 1.5×10^4 cells/well in 50 μl and 4×10^3 cells/well in 25 μl for 96 well plates and 384 well plates respectively. For the media/background control column assay media only was added. Cell plates were placed in a humid chamber and incubated overnight at 37° C./5% CO2. After overnight incubation cells were checked for confluency and healthy appearance.\nTest articles were made up at 10× test concentration in a maximum DMSO concentration of 10% (final assay concentration maximal 1% DMSO) and added to the cell plates in volumes of 10 μl for 96 well plates and 5 μl for 384 well plates. For cell control and virus control wells the test article solvent only was added. Virus or assay media for cytotoxicity test wells and media/cell control wells was added immediately after test articles at an MOI of 0.5, 40 or 20 μl for 96 and 384 well plates respectively. Virus suspension was prepared by thawing RSV A2 frozen stocks and diluting to the required concentration of plaque forming units in assay media on ice.\nCell plates were further incubated inside a humid chamber for 72 h p.i at 37° C./5% CO2. After the incubation period cells were observed under the microscope to check for characteristic cytopathic effect in virus control wells and healthy cells in the cell control wells. After plates were adjusted to room temperature 20/40 μl Viral ToxGlo (Promega) was added to each well of the 384/96 well cell plates. Plates were incubated at room temperature, protected from light on a plate rocker for 20 minutes before measuring the luminescence on a spectrophotometer (Biotek Synergy HTX).", "units": {"EC50": "nM"}, "values": [
      {"smiles": "CC(C)CCNC(=O)c1ccccc1Nc1ccc(C(=O)N=C2NCCCN2)cc1C1CC1", "note": "[compound 147, 3-cyclopropyl-N-(1,3-diazinan-2-ylidene)-4-({2-[(3-methylbutyl)carbamoyl]phenyl}amino)benzamide]", "EC50": 460},
      {"smiles": "O=C(N=C1NCCCN1)c1ccc(Nc2cccc(OCC3CCCCC3)c2)c(C2CC2)c1", "note": "[compound 127, 4-{[3-(cyclohexylmethoxy)phenyl]amino}-3-cyclopropyl-N-(1,3-diazinan-2-ylidene)benzamide]", "EC50": 172},
      {"smiles": "CC(C)CCNC(=O)c1cccc(Nc2ccc(C(=O)N=C3NCCCN3)cc2C(F)(F)F)c1", "note": "[compound 104, N-(1,3-diazinan-2-ylidene)-4-({3-[(3-methylbutyl)carbamoyl]phenyl}amino)-3-(trifluoromethyl)benzamide]", "EC50": 50},
      {"smiles": "O=C(CCC1CCCCC1)Nc1cc(Nc2ccc(C(=O)N=C3NCCCN3)cc2C(F)(F)F)ccc1F", "note": "[compound 148, 4-{[3-(3-cyclohexylpropanamido)-4-fluorophenyl]amino}-N-(1,3-diazinan-2-ylidene)-3-(trifluoromethyl)benzamide]", "EC50": 463},
      {"smiles": "O=C(N=C1NCCCN1)c1ccc(Nc2cccc(C(=O)NC3CCCCC3)c2)c(C2CC2)c1", "note": "[compound 117, 4-{[3-(cyclohexylcarbamoyl)phenyl]amino}-3-cyclopropyl-N-(1,3-diazinan-2-ylidene)benzamide]", "EC50": 125},
      {"smiles": "O=C(N=C1NCCCN1)c1ccc(Nc2cccc(C(=O)N3CC4CC4C3)c2)c(C2CC2)c1", "note": "(stereo not shown) [compound 136, 4-[(3-{3-azabicyclo[3.1.0]hexane-3-carbonyl}phenyl)amino]-3-cyclopropyl-N-(1,3-diazinan-2-ylidene)benzamide]", "EC50": 298},
      {"smiles": "O=C(N=C1NCCCN1)c1ccc(Nc2cccc(C(=O)NC3COC3)c2)c(C2CC2)c1", "note": "[compound 166, 3-cyclopropyl-N-(1,3-diazinan-2-ylidene)-4-({3-[(oxetan-3-yl)carbamoyl]phenyl}amino)benzamide]", "EC50": 2740},
      {"smiles": "O=C(N=C1NCCCN1)c1ccc(Nc2cccc(OCC(F)(F)F)c2)c(C2CC2)c1", "note": "[compound 124, 3-cyclopropyl-N-(1,3-diazinan-2-ylidene)-4-{[3-(2,2,2-trifluoroethoxy)phenyl]amino}benzamide]", "EC50": 150},
      {"smiles": "Cc1c(NC(=O)CCC(C)C)cccc1Nc1ccc(C(=O)N=C2NCCCN2)cc1C1CC1", "note": "[compound 128, 3-cyclopropyl-N-(1,3-diazinan-2-ylidene)-4-{[2-methyl-3-(4-methylpentanamido)phenyl]amino}benzamide]", "EC50": 209},
      {"smiles": "CC1COCCN1C(=O)c1cccc(Nc2ccc(C(=O)/N=C3\\NCCC(=O)N3)cc2C2CC2)c1Cl", "note": "(stereo not shown) [compound 91, 4-{[2-chloro-3-(3-methylmorpholine-4-carbonyl)phenyl]amino}-3-cyclopropyl-N-[(2E)-4-oxo-1,3-diazinan-2-ylidene]benzamide]", "EC50": 2},
      {"smiles": "O=C(N=C1NCCCN1)c1ccc(Nc2cccc(C(=O)NC3CCOC3)c2)c(C2CC2)c1", "note": "(stereo not shown) [compound 155, 3-cyclopropyl-N-(1,3-diazinan-2-ylidene)-4-({3-[(oxolan-3-yl)carbamoyl]phenyl}amino)benzamide]", "EC50": 949},
      {"smiles": "CC(C)CCN(C)C(=O)c1cccc(Nc2ccc(C(=O)N=C3NCCCN3)cc2C2CC2)c1", "note": "[compound 118, 3-cyclopropyl-N-(1,3-diazinan-2-ylidene)-4-({3-[methyl(3-methylbutyl)carbamoyl]phenyl}amino)benzamide]", "EC50": 126},
      {"smiles": "CC(C)NC(=O)c1cccc(Nc2ccc(C(=O)N=C3NCCCN3)cc2C2CC2)c1", "note": "[compound 102, 3-cyclopropyl-N-(1,3-diazinan-2-ylidene)-4-({3-[(propan-2-yl)carbamoyl]phenyl}amino)benzamide]", "EC50": 41},
      {"smiles": "O=C(N=C1NCCCN1)c1ccc(Nc2cccc(OC(F)(F)F)c2)c(C2CC2)c1", "note": "[compound 137, 3-cyclopropyl-N-(1,3-diazinan-2-ylidene)-4-{[3-(trifluoromethoxy)phenyl]amino}benzamide]", "EC50": 304},
      {"smiles": "Cc1c(Nc2ccc(C(=O)N=C3NCCCN3)cc2C2CC2)cccc1C(=O)NCCC(C)C", "note": "[compound 96, 3-cyclopropyl-N-(1,3-diazinan-2-ylidene)-4-({2-methyl-3-[(3-methylbutyl)carbamoyl]phenyl}amino)benzamide]", "EC50": 20},
      {"smiles": "O=C(N=C1NCCCN1)c1ccc(Nc2cccc(S(=O)(=O)CCCC3CCCCC3)c2)c(C2CC2)c1", "note": "[compound 143, 4-{[3-(3-cyclohexylpropanesulfonyl)phenyl]amino}-3-cyclopropyl-N-(1,3-diazinan-2-ylidene)benzamide]", "EC50": 398},
      {"smiles": "Cc1c(Nc2ccc(C(=O)N=C3NCCCN3)cc2C2CC2)cccc1-c1ncc(Cl)[nH]1", "note": "[compound 141, 4-{[3-(5-chloro-1H-imidazol-2-yl)-2-methylphenyl]amino}-3-cyclopropyl-N-(1,3-diazinan-2-ylidene)benzamide]", "EC50": 370},
      {"smiles": "O=C(N=C1NCCCN1)c1ccc(Nc2cccc(C(=O)NC3CC(F)(F)C3)c2)c(C2CC2)c1", "note": "[compound 152, 3-cyclopropyl-N-(1,3-diazinan-2-ylidene)-4-({3-[(3,3-difluorocyclobutyl)carbamoyl]phenyl}amino)benzamide]", "EC50": 593},
      {"smiles": "O=C(N=C1NCCCN1)c1ccc(Nc2cccc(OCCC3CCCCC3)c2)c(C2CC2)c1", "note": "[compound 130, 4-{[3-(2-cyclohexylethoxy)phenyl]amino}-3-cyclopropyl-N-(1,3-diazinan-2-ylidene)benzamide]", "EC50": 234},
      {"smiles": "O=C(N=C1NCCCN1)c1ccc(Nc2ccccc2S(=O)(=O)CCCC2CCCCC2)c(C2CC2)c1", "note": "[compound 106, 4-{[2-(3-cyclohexylpropanesulfonyl)phenyl]amino}-3-cyclopropyl-N-(1,3-diazinan-2-ylidene)benzamide]", "EC50": 67},
      {"smiles": "CN(C)C(=O)c1cccc(Nc2ccc(C(=O)N=C3NCCCN3)cc2C2CC2)c1", "note": "[compound 163, 3-cyclopropyl-N-(1,3-diazinan-2-ylidene)-4-{[3-(dimethylcarbamoyl)phenyl]amino}benzamide]", "EC50": 1470},
      {"smiles": "Cc1cc(C(=O)N=C2NCCCN2)ccc1Nc1cccc(NC(=O)CCC2CCCCC2)c1", "note": "[compound 153, 4-{[3-(3-cyclohexylpropanamido)phenyl]amino}-N-(1,3-diazinan-2-ylidene)-3-methylbenzamide]", "EC50": 704},
      {"smiles": "O=C(N=C1NCCCN1)c1ccc(Nc2ccccc2C(=O)NCCC(F)(F)F)c(C2CC2)c1", "note": "[compound 159, 3-cyclopropyl-N-(1,3-diazinan-2-ylidene)-4-({2-[(3,3,3-trifluoropropyl)carbamoyl]phenyl}amino)benzamide]", "EC50": 1100},
      {"smiles": "CC(C)CCNC(=O)c1cccc(Nc2ccc(C(=O)N=C3NCCCN3)cc2C2CC2)c1", "note": "[compound 113, 3-cyclopropyl-N-(1,3-diazinan-2-ylidene)-4-({3-[(3-methylbutyl)carbamoyl]phenyl}amino)benzamide]", "EC50": 102},
      {"smiles": "CCC(C)NC(=O)c1cccc(Nc2ccc(C(=O)N=C3NCCCN3)cc2C2CC2)c1", "note": "(stereo not shown) [compound 101, 4-({3-[(butan-2-yl)carbamoyl]phenyl}amino)-3-cyclopropyl-N-(1,3-diazinan-2-ylidene)benzamide]", "EC50": 40},
      {"smiles": "CC(C)CCCCNC(=O)c1cccc(Nc2ccc(C(=O)N=C3NCCCN3)cc2C2CC2)c1", "note": "[compound 107, 3-cyclopropyl-N-(1,3-diazinan-2-ylidene)-4-({3-[(5-methylhexyl)carbamoyl]phenyl}amino)benzamide]", "EC50": 68},
      {"smiles": "O=C1CCN/C(=N\\C(=O)c2ccc(Nc3cccc(OCC4CCCCO4)c3)c(C3CC3)c2)N1", "note": "(stereo not shown) [compound 151, 3-cyclopropyl-4-({3-[(oxan-2-yl)methoxy]phenyl}amino)-N-[(2E)-4-oxo-1,3-diazinan-2-ylidene]benzamide]", "EC50": 525},
      {"smiles": "CCC(CC)NC(=O)c1cccc(Nc2ccc(C(=O)N=C3NCCCN3)cc2C2CC2)c1", "note": "[compound 110, 3-cyclopropyl-N-(1,3-diazinan-2-ylidene)-4-({3-[(pentan-3-yl)carbamoyl]phenyl}amino)benzamide]", "EC50": 80},
      {"smiles": "O=C(N=C1NCCCN1)c1ccc(Nc2cc(C(=O)NCCC3CCCCC3)ccn2)c(C(F)(F)F)c1", "note": "[compound 111, N-(2-cyclohexylethyl)-2-({4-[(1,3-diazinan-2-ylidene)carbamoyl]-2-(trifluoromethyl)phenyl}amino)pyridine-4-carboxamide]", "EC50": 86},
      {"smiles": "O=C(N=C1NCCCN1)c1ccc(Nc2cccc(C(=O)NCCC3CCOCC3)c2)c(C2CC2)c1", "note": "[compound 126, 3-cyclopropyl-N-(1,3-diazinan-2-ylidene)-4-[(3-{[2-(oxan-4-yl)ethyl]carbamoyl}phenyl)amino]benzamide]", "EC50": 165},
      {"smiles": "CC(C)C(=O)Nc1cccc(Nc2ccc(C(=O)/N=C3\\NCCC(=O)N3)cc2C2CC2)c1", "note": "[compound 116, 3-cyclopropyl-4-{[3-(2-methylpropanamido)phenyl]amino}-N-[(2E)-4-oxo-1,3-diazinan-2-ylidene]benzamide]", "EC50": 122}
    ]}
  ]
}
